Experimental data as given in article PMC10303271, “Synthesis and Receptor Binding Studies of α5 GABAAR Selective Novel Imidazodiazepines Targeted for Psychiatric and Cognitive Disorders” (Molecules, 2023).
Where two headings read alike, the source gives them in different places.

Legend:
A2A = biological target: T1, A2A (Homo sapiens, UniProt P29274); test: PDSP primary binding A2A; conditions: primary binding, 10,000 nM; last figure of the line = mean of the 4 before it
T1 construct: purchased NIMH Psychoactive Drug Screening Program (PDSP)
T1 sequence (P29274 whole entry): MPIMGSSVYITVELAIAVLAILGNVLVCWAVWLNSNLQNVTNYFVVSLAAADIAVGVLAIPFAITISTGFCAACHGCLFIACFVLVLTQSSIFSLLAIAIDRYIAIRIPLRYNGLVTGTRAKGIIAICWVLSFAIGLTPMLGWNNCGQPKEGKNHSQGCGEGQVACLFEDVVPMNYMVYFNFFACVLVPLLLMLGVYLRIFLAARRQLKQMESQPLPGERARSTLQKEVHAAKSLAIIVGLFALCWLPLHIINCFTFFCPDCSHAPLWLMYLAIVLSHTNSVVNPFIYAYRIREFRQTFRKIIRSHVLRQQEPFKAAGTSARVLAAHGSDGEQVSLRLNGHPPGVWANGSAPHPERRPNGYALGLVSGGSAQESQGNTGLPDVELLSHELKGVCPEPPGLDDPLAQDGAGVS
Experimental: (§1) To determine if any off-target receptor-binding effects are present, all the novel ligands were sent to the National Institute of Mental Health (NIMH), Psychoactive Drug Screening Program (PDSP). The ligands were screened over a panel of 47 receptors, ion channels, and transporters to determine any other possible interactions with […]. The hERG-binding was also determined. […] No binding of the test compounds to calcium channels was observed. […] It is necessary to screen the compounds for hERG-binding during the early process of drug discovery. The unintentional binding of many drugs to hERG can cause blockade of hERG K+ channels in the heart, which can cause many side effects including cardiac arrhythmias and sudden death. […] All of the α5 imidazodiazepines were tested for hERG-binding.
(§2) The NIMH PDSP assay protocol book [https://kidbdev.med.unc.edu/databases/PDSP%20Protocols%20II%202013-03-28.pdf accessed on 23 April 2023]. describes the protocols for primary and secondary radio-ligand binding assays. These assays were carried out in a final volume of 125 µL per well in the appropriate binding buffer.
(§3) The binding of a ligand to a receptor, ion channel, or transporter was determined in the […] of 10 µM of the appropriate reference compound. […] Plates were incubated in the dark for 90 min at rt, and the reactions were stopped by vacuum filtration onto 0.3% polyethyleneimine (PEI) soaked 96-well filter mats using a 96-well Filtermateharvester. This was followed by three washes with cold PBS buffer. Radioactivity was then counted on a Microbeta counter. Nonlinear regression was used to analyze the data with N = 6 replicates.

M3 = biological target: T2, M3 (Homo sapiens, UniProt P20309); test: PDSP primary binding M3; conditions: primary binding, 10,000 nM; last figure of the line = mean of the 4 before it; read-out: M3, PDSP raw data, mean
T2 construct: purchased NIMH Psychoactive Drug Screening Program (PDSP)
T2 sequence (P20309 whole entry): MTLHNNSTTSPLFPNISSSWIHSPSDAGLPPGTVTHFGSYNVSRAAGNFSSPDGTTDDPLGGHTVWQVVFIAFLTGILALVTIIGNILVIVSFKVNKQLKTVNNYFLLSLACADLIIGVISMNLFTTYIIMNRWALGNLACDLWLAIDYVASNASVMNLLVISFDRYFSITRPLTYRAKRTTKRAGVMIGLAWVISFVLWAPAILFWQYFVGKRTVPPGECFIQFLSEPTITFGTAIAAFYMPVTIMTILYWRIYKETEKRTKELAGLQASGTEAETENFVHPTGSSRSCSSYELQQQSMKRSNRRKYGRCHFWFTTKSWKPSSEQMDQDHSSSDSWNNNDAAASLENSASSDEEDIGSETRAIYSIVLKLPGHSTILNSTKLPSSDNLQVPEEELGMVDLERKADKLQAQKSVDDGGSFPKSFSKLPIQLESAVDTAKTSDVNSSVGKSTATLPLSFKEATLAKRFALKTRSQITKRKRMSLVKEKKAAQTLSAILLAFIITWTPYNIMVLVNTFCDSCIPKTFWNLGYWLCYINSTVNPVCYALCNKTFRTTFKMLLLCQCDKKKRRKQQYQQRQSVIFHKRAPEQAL
Experimental: as §1, §2, §3

5-HT6 = biological target: T3, 5-HT6 (Homo sapiens, UniProt P50406); test: PDSP primary binding 5-HT6; conditions: 1.5 h; primary binding, 10,000 nM; last figure of the line = mean of the 4 before it; read-out: 5-HT6, PDSP raw data, mean
T3 construct: purchased NIMH Psychoactive Drug Screening Program (PDSP)
T3 sequence (P50406 whole entry): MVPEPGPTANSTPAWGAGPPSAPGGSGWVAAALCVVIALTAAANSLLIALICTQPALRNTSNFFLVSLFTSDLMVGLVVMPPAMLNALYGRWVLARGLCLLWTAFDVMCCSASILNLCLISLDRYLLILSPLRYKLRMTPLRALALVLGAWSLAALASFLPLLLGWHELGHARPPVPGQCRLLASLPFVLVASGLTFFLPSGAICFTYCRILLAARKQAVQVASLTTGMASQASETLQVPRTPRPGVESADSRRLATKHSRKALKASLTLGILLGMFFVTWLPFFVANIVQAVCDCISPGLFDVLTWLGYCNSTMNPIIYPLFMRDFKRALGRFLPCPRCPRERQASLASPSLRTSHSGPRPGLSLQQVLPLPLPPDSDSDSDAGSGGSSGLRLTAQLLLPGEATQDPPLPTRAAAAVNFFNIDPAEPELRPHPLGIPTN
Experimental: as §1, §2, §3

Alpha1A = biological target: T4, Alpha1A (Homo sapiens, UniProt P35348); test: PDSP primary binding Alpha1A; conditions: 1.5 h; primary binding, 10,000 nM; last figure of the line = mean of the 4 before it; read-out: Alpha1A, PDSP raw data, mean
T4 construct: purchased NIMH Psychoactive Drug Screening Program (PDSP)
T4 sequence (P35348 1-466): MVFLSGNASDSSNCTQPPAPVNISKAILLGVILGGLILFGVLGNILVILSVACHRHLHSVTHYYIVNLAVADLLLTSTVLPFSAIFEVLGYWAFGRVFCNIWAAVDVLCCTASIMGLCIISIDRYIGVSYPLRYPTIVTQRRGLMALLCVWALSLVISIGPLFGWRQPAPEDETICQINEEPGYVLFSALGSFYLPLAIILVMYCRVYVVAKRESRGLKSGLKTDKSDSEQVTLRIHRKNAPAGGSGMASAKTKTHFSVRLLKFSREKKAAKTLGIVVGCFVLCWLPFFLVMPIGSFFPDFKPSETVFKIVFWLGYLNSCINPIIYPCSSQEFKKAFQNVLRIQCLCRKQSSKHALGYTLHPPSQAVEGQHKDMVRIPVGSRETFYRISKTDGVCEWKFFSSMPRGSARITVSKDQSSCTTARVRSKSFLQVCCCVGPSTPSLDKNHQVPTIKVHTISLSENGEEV
Experimental: as §1, §2, §3

Beta3 = biological target: T5, Beta3 (Homo sapiens, UniProt P13945); test: PDSP primary binding Beta3; conditions: 1.5 h; primary binding, 10,000 nM; last figure of the line = mean of the 4 before it; read-out: Beta3, PDSP raw data, mean
T5 construct: purchased NIMH Psychoactive Drug Screening Program (PDSP)
T5 sequence (P13945 whole entry): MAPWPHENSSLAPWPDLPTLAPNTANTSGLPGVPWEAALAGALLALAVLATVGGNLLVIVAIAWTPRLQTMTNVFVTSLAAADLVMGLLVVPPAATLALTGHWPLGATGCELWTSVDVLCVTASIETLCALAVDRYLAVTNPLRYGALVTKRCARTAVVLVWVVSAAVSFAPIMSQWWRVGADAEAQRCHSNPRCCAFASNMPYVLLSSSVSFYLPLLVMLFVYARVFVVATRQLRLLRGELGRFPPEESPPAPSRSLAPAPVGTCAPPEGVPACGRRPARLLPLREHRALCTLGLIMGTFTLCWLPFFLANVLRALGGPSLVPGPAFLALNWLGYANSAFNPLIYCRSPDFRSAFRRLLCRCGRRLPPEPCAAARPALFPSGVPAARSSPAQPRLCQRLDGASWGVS
Experimental: as §1, §2, §3

Ca channel human = test: PDSP primary binding Ca channel; conditions: primary binding, 10,000 nM; last figure of the line = mean of the 4 before it
Experimental: as §1, §2, §3

[1] = biological target: peripheral benzodiazepine receptors (PBR) (Rattus norvegicus, UniProt P16257); test: PDSP radioligand binding at PBR
Chain of peripheral benzodiazepine receptors (PBR) (P16257 whole entry): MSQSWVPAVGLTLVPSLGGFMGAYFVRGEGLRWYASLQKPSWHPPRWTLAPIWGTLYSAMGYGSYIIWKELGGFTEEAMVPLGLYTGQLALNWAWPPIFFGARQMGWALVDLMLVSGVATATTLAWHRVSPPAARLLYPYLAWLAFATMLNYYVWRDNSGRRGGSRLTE
From the text: The compounds were also screened at PDSP to determine any binding with peripheral benzodiazepine receptors (PBR). A number of biological processes are associated with PBR. The most prevalent are transportation of anions for mitochondrial transmembrane potential, biosynthesis of heme, regulation of neurological damage, proliferation, cell death (apoptosis), as well as regulation of steroidogenesis. The test compounds were screened in the primary binding assay to determine the % inhibition at PBR. […] These compounds were then subjected to a secondary screening to determine the Ki (nM) value for PBR receptors.
as §2, §3

D1 = biological target: T6, D1 (Homo sapiens, UniProt P21728); test: PDSP primary binding D1; conditions: 1.5 h; primary binding, 10,000 nM; last figure of the line = mean of the 4 before it; read-out: D1, PDSP raw data, mean
T6 construct: purchased NIMH Psychoactive Drug Screening Program (PDSP)
T6 sequence (P21728 whole entry): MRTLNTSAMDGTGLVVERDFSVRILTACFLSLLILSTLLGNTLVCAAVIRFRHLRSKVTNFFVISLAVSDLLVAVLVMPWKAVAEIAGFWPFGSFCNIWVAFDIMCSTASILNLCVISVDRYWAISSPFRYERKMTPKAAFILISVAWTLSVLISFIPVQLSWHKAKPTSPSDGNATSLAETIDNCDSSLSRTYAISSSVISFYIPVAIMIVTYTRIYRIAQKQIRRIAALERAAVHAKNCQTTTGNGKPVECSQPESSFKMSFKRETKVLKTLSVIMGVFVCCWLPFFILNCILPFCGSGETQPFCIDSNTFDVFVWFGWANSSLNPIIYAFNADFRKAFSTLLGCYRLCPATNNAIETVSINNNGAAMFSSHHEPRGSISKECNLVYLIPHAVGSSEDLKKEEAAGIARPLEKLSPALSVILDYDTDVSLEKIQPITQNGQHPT
Experimental: as §1, §2, §3

5-HT1B = biological target: T7, 5-HT1B (Homo sapiens, UniProt P28222); test: PDSP primary binding 5-HT1B; conditions: 1.5 h; primary binding, 10,000 nM; last figure of the line = mean of the 4 before it; read-out: 5-HT1B, PDSP raw data, mean
T7 construct: purchased NIMH Psychoactive Drug Screening Program (PDSP)
T7 sequence (P28222 whole entry): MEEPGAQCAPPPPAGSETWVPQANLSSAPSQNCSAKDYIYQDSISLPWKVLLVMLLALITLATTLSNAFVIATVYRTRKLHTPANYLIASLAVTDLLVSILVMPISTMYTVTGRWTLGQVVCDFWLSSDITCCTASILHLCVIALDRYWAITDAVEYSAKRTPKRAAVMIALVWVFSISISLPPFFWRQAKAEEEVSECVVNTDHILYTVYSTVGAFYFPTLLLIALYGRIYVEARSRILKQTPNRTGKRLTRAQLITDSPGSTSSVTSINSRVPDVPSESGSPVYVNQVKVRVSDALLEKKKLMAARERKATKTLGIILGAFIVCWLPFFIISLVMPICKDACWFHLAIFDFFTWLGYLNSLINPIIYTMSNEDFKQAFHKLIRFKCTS
Experimental: as §1, §2, §3

Beta1 = biological target: T8, Beta1 (Homo sapiens, UniProt P08588); test: PDSP primary binding Beta1; conditions: 1.5 h; primary binding, 10,000 nM; last figure of the line = mean of the 4 before it; read-out: Beta1, PDSP raw data, mean
T8 construct: purchased NIMH Psychoactive Drug Screening Program (PDSP)
T8 sequence (P08588 whole entry): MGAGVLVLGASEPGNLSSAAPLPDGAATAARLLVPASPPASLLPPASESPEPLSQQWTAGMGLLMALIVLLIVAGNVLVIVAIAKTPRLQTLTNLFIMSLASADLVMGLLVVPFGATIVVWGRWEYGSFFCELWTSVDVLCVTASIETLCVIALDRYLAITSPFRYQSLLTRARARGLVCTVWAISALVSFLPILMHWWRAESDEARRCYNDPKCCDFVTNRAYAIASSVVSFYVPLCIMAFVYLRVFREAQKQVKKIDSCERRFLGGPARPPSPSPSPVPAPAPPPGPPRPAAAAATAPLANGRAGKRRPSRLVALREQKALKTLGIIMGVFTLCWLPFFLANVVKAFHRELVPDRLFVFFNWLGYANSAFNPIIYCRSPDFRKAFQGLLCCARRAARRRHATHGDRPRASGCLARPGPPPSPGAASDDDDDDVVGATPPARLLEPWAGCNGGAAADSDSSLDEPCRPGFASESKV
Experimental: as §1, §2, §3

5-HT1D = biological target: T9, 5-HT1D (Homo sapiens, UniProt P28221); test: PDSP primary binding 5-HT1D; conditions: 1.5 h; primary binding, 10,000 nM; last figure of the line = mean of the 4 before it; read-out: 5-HT1D, PDSP raw data, mean
T9 construct: purchased NIMH Psychoactive Drug Screening Program (PDSP)
T9 sequence (P28221 whole entry): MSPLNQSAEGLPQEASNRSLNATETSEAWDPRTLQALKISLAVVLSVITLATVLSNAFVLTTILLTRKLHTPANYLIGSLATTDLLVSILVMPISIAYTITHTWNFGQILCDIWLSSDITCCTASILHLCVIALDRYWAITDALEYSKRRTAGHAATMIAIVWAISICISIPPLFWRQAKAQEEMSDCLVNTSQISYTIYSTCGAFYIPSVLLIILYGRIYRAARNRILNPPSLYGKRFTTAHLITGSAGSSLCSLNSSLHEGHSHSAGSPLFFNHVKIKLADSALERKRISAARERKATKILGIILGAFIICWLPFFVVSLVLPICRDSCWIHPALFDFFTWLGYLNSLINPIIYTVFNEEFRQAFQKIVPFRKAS
Experimental: as §1, §2, §3

5-HT5A = biological target: T10, 5-HT5A (Homo sapiens, UniProt P47898); test: PDSP primary binding 5-HT5A; conditions: 1.5 h; primary binding, 10,000 nM; last figure of the line = mean of the 4 before it; read-out: 5-HT5A, PDSP raw data, mean
T10 construct: purchased NIMH Psychoactive Drug Screening Program (PDSP)
T10 sequence (P47898 whole entry): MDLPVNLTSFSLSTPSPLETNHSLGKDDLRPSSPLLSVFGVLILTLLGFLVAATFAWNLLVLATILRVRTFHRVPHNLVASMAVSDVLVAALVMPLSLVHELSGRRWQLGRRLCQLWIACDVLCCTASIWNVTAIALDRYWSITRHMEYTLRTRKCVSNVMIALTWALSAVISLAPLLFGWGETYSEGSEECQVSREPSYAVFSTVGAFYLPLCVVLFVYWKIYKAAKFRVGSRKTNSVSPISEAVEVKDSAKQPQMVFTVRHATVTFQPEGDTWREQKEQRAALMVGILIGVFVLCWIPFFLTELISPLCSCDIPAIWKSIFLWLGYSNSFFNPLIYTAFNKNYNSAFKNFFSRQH
Experimental: as §1, §2, §3

Beta2 = biological target: T11, Beta2 (Homo sapiens, UniProt P07550); test: PDSP primary binding Beta2; conditions: 1.5 h; primary binding, 10,000 nM; last figure of the line = mean of the 4 before it; read-out: Beta2, PDSP raw data, mean
T11 construct: purchased NIMH Psychoactive Drug Screening Program (PDSP)
T11 sequence (P07550 whole entry): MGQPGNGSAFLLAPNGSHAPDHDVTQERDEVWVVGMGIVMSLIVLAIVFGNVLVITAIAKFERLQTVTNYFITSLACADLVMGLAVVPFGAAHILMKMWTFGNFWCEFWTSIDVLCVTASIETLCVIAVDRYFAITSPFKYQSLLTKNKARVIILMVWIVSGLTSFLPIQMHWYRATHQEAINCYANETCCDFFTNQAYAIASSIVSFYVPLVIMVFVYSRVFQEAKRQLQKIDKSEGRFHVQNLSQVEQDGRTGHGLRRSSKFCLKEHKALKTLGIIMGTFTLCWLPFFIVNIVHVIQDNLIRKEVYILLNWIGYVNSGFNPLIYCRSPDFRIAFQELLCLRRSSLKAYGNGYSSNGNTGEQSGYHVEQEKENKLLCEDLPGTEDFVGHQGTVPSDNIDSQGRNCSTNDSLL
Experimental: as §1, §2, §3

Sigma 1 = test: PDSP primary binding Sigma 1; conditions: primary binding, 10,000 nM; last figure of the line = mean of the 4 before it
Experimental: as §1, §2, §3

[2] = 1.5 h, primary binding, 10,000 nM, last figure of the line = mean of the 4 before it, some tables list PBR twice, read-out: PBR, PDSP raw data, mean
[3] = at 10,000 nM, N = 5, read-out: Binding Affinity at PBR % Inhibition (Primary)

SMILES	A2A, PDSP raw data, mean (A2A)	inhibition at 10 µM (M3)	inhibition at 10 µM (5-HT6)	inhibition at 10 µM (Alpha1A)	inhibition at 10 µM (Beta3)	Ca channel human, PDSP raw data, mean (Ca channel human)	Ki [1]	inhibition at 10 µM [1, 2]	inhibition at 10 µM [1, 3]	inhibition at 10 µM (D1)	inhibition at 10 µM (5-HT1B)	inhibition at 10 µM (Beta1)	inhibition at 10 µM (5-HT1D)	inhibition at 10 µM (5-HT5A)	inhibition at 10 µM (Beta2)	Sigma 1, PDSP raw data, mean (Sigma 1)
CC(C)c1noc(-c2ncn3c2[C@@H](C)N=C(c2ccccc2F)c2cc(Cl)ccc2-3)n1 [Compound 37, (R)-5-(8-Chloro-6-(2′-fluorophenyl)-4-methyl-4H-benzo[f]imidazo[1,5-a][1,4]diazepin-3-yl)-3-isopropyl-1,2,4-oxadiazole]	-1.87%	15.6%	-1.65%	-8.38%	46%	7.04%	838 ± 135 nM	89.6%	88 ± 1.32%	27.4%	10.4%	8.14%	9.73%	-2.71%	6.55%	5.67%
C[C@H]1N=C(c2ccccc2F)c2cc(Cl)ccc2-n2cnc(-c3nc(C4CC4)no3)c21 [Compound 38, (R)-5-(8-Chloro-6-(2′-fluorophenyl)-4-methyl-4H-benzo[f]imidazo[1,5-a][1,4]diazepin-3-yl)-3-cyclopropyl-1,2,4-oxadiazole]	19.95%	19.3%	-6.37%	1.65%	24.2%	30.64%	617 ± 27.1 nM	89.5%	90 ± 2.13%	43%	8.75%	9.95%	7.31%	-2.84%	1.75%	-1.51%
CCc1noc(-c2ncn3c2CN=C(c2ccccc2F)c2cc(C4CC4)ccc2-3)n1 [Compound 44, 5-(8-Cyclopropyl-6-(2′-fluorophenyl)-4H-benzo[f]imidazo[1,5-a][1,4]diazepin-3-yl)-3-ethyl-1,2,4-oxadiazole]	21.36%	-0.6%	27.6%	21.4%	-4.01%	36.68%	–	71%	–	49.6%	62.1%	-5.19%	67.4%	5.08%	3.97%	53.37%
CCc1noc(-c2ncn3c2[C@@H](C)N=C(c2ccccc2F)c2cc(C4CC4)ccc2-3)n1 [Compound 46, (R)-5-(8-Cyclopropyl-6-(2′-fluorophenyl)-4-methyl-4H-benzo[f]imidazo[1,5-a][1,4]diazepin-3-yl)-3-ethyl-1,2,4-oxadiazole]	27.25%	8.95%	71.5%	31.8%	31.1%	36.53%	627.3 ± 5.72 nM	86.4%	86.4 ± 6.35%	74.6%	15.1%	-26.4%	17.7%	23.6%	-6.06%	34.74%
